Source: US11596639B2, “Substituted indole Mcl-1 inhibitors” (Vanderbilt University, priority 2016, dated 2023)

Tests used:
[1] = target: T1, Mcl-1 (Homo sapiens (Human), UniProt Q07820); experiment: TR-FRET binding assay, FITC-Bak peptide and MBP-tagged Mcl-1; details: read-out: Ki for Inhibition of Mcl-1 by TR-FRET assay
Procedure: Compounds are diluted in DMSO in a 16-point, semilog serial dilution scheme. […] The plate was mixed and incubated for 3 hours at room temperature. […] TR-FRET signal is plotted and IC50 and Ki values are calculated in the same manner as the fluorescence polarization anisotropy based competition assays.

[2] = tested on: H929 human cancer cell lines; experiment: Cellular viability / proliferation (Cell TiterGlo, 72 h); type: cell-based; details: Homo sapiens, NCI-H929, 72 h, read-out: GI50 on cellular proliferation of H929 human cancer cell lines, H929 cells, 72 h, Cell TiterGlo, 10% FBS
Method in brief: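 Compounds were added as 2-fold serial dilutions from 50 μM (final DMSO <1%) to H929 cells seeded 1,000 per well in 10% FBS medium one day earlier.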

[3] = target: T1, Mcl-1; experiment: Fluorescence polarization anisotropy (FPA) competition assay, FITC-Bak or FITC-Bim BH3 peptide; type: binding; details: read-out: Ki for Inhibition of Mcl-1 by FPA assay

T1 sequence (Q07820 172-327): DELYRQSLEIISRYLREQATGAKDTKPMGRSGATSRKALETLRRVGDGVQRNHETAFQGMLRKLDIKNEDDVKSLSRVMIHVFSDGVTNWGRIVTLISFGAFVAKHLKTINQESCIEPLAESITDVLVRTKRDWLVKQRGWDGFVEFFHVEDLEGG

Row | SMILES | Ki [1] | GI50 [2] | Ki [3]
1 | Cc1cc(OCCCc2c3n(c4c(-c5c(C)nn(C)c5C)c(Cl)ccc24)[C@H](C)CN(c2cc(N(C)C(=O)CN4CCCC4)cc4c(C(=O)O)cn(C)c24)C3=O)cc(C)c1Cl [Example 613, (R)-7-(7-chloro-10-(3-(4-chloro-3,5-dimethylphenoxy)propyl)-4-methyl-1-oxo-6-(1,3,5-trimethyl-1H-pyrazol-4-yl)-3,4-dihydropyrazino[1,2-a]indol-2(1H)-yl)-1-methyl-5-(N-methyl-2-(pyrrolidin-1-yl)acetamido)-1H-indole-3-carboxylic acid] | 1.9 nM |  | 
2 | COCCn1c(C(=O)O)cc2cc(C)cc(N3C[C@@H](C)n4c(c(CCCOc5cc(C)c(Cl)c(C)c5)c5ccc(Cl)c(-c6c(C)nn(C)c6C)c54)C3=O)c21 [Example 709, (M, R)-7-(7-chloro-10-(3-(4-chloro-3,5-dimethylphenoxy)propyl)-4-methyl-1-oxo-6-(1,3,5-trimethyl-1H-pyrazol-4-yl)-3,4-dihydropyrazino[1,2-a]indol-2(1H)-yl)-1-(2-methoxyethyl)-5-methyl-1H-indole-2-carboxylic acid] | < 0.2 nM |  | 
3 | Cc1cc(OCCCc2c3n(c4c(-c5c(C)nn(C)c5C)c(Cl)ccc24)[C@H](C)CN(c2cc(NC(=O)CCN4CCN(C)CC4)cc4c(C(=O)O)cn(C)c24)C3=O)cc(C)c1Cl [Example 551, (R)-7-(7-chloro-10-(3-(4-chloro-3,5-dimethylphenoxy)propyl)-4-methyl-1-oxo-6-(1,3,5-trimethyl-1H-pyrazol-4-yl)-3,4-dihydropyrazino[1,2-a]indol-2(1H)-yl)-1-methyl-5(3-(4-methylpiperazin-1-yl)propanamido)-1H-indole-3-carboxylic acid] | 0.3 nM |  | 
4 | COCCOc1cc(N2C[C@@H](C)n3c(c(CCCOc4cc(C)c(Cl)c(C)c4)c4ccc(Cl)c(-c5c(C)nn(C)c5C)c43)C2=O)c2c(c1)cc(C(=O)O)n2C [Example 712, (P, R)-7-(7-chloro-10-(3-(4-chloro-3,5-dimethylphenoxy)propyl)-4-methyl-1-oxo-6-(1,3,5-trimethyl-1H-pyrazol-4-yl)-3,4-dihydropyrazino[1,2-a]indol-2(1H)-yl)-5-(2-methoxyethoxy)-1-methyl-1H-indole-2-carboxylic acid] | < 0.2 nM |  | 
5 | Cc1cc(OCCCc2c3n(c4c(-c5c(C)nn(C)c5C)c(Cl)ccc24)[C@H](C)CN(c2cc(N(C)C(=O)CN(C)C)cc4c(C(=O)O)cn(C)c24)C3=O)cc(C)c1Cl [Example 611, (R)-7-(7-chloro-10-(3-(4-chloro-3,5-dimethylphenoxy)propyl)-4-methyl-1-oxo-6-(1,3,5-trimethyl-1H-pyrazol-4-yl)-3,4-dihydropyrazino[1,2-a]indol-2(1H)-yl)-5-(2-(dimethylamino)-N-methylacetamido)-1-methyl-1H-indole-3-carboxylic acid] | 1.1 nM |  | 
6 | COCCOc1cc(N2C[C@@H](C)n3c(c(CCCOc4cc(C)c(Cl)c(C)c4)c4ccc(Cl)c(-c5c(C)nn(C)c5C)c43)C2=O)c2c(c1)cc(C(=O)O)n2C [Example 711, (M, R)-7-(7-chloro-10-(3-(4-chloro-3,5-dimethylphenoxy)propyl)-4-methyl-1-oxo-6-(1,3,5-trimethyl-1H-pyrazol-4-yl)-3,4-dihydropyrazino[1,2-a]indol-2(1H)-yl)-5-(2-methoxyethoxy)-1-methyl-1H-indole-2-carboxylic acid] | < 0.2 nM |  | 
7 | Cc1cc(N2C[C@@H](C)n3c(c(CCCOc4cc(C)c(Cl)c(C)c4)c4ccc(Cl)c(-c5c(C)nn(C)c5C)c43)C2=O)c2c(c1)cc(C(=O)O)n2Cc1ccccn1 [Example 714, (P, R)-7-(7-chloro-10-(3-(4-chloro-3,5-dimethylphenoxy)propyl)-4-methyl-1-oxo-6-(1,3,5-trimethyl-1H-pyrazol-4-yl)-3,4-dihydropyrazino[1,2-a]indol-2(1H)-yl)-5-methyl-1-(pyridin-2-ylmethyl)-1H-indole-2-carboxylic acid] | < 0.2 nM |  | 
8 | Cc1cc(OCCCc2c3n(c4c(-c5c(C)nn(C)c5C)c(Cl)ccc24)[C@H](C)CN(c2cc(NC(=O)CN4CCN(C)CC4)cc4c(C(=O)O)cn(C)c24)C3=O)cc(C)c1Cl [Example 554, (R)-7-(7-chloro-10-(3-(4-chloro-3,5-dimethylphenoxy)propyl)-4-methyl-1-oxo-6-(1,3,5-trimethyl-1H-pyrazol-4-yl)-3,4-dihydropyrazino[1,2-a]indol-2(1H)-yl)-1-methyl-5-(2-(4-methylpiperazin-1-yl)acetamido)-1H-indole-3-carboxylic acid] | 0.26 nM |  | 
9 | Cc1cc(OCCCc2c3n(c4c(-c5c(C)nn(C)c5C)c(Cl)ccc24)[C@H](C)CN(c2cc(CN4CCC(Oc5ccc(Cl)cc5)CC4)cc4c(C(=O)O)cn(C)c24)C3=O)cc(C)c1Cl [Example 547, (R)-7-(7-chloro-10-(3-(4-chloro-3,5-dimethylphenoxy)propyl)-4-methyl-t-oxo-6-(1,3,5-trimethyl-1H-pyrazol-4-yl)-3,4-dihydropyrazino[1,2-a]indol-2(1H)-yl)-5-((4-(4-chlorophenoxy)piperidin-1-yl)methyl)-1-methyl-1H-indole-3-carboxylic acid] | 10 nM |  | 
10 | COCCn1c(C(=O)O)cc2cc(C)cc(N3C[C@@H](C)n4c(c(CCCOc5cc(C)c(Cl)c(C)c5)c5ccc(Cl)c(-c6c(C)nn(C)c6C)c54)C3=O)c21 [Example 710, (P, R)-7-(7-chloro-10-(3-(4-chloro-3,5-dimethylphenoxy)propyl)-4-methyl-1-oxo-6-(1,3,5-trimethyl-1H-pyrazol-4-yl)-3,4-dihydropyrazino[1,2-a]indol-2(1H)-yl)-1-(2-methoxyethyl)-5-methyl-1H-indole-2-carboxylic acid] | < 0.2 nM |  | 
11 | Cc1cc(OCCCc2c3n(c4c(-c5c(C)nn(C)c5C)c(Cl)ccc24)[C@H](C)CN(c2cccc4cc(C(=O)O)[nH]c24)C3=O)cc(C)c1Cl [Example 233, 7-[(4R)-7-chloro-10-[3-(4-chloro-3,5-dimethyl-phenoxy)propyl]-4-methyl-1-oxo-6-(1,3,5-trimethylpyrazol-4-yl)-3,4-dihydropyrazino[1,2-a]indol-2-yl]-1H-indole-2-carboxylic acid] |  | 1400 nM | < 1 nM
12 | Cc1cc(OCCCc2c3n(c4c(-c5c(C)nn(C)c5C)c(Cl)ccc24)[C@H](C)CN(c2cn(C)c4c(-c5nnnn5C)cccc24)C3=O)cc(C)c1Cl [Example 372, (R)-7-Chloro-10-(3-(4-chloro-3,5-dimethylphenoxy)propyl)-4-methyl-2-(1-methyl-7-(1-methyl-1H-tetrazol-5-yl)-1H-indol-3-yl)-6-(1,3,5-trimethyl-1H-pyrazol-4-yl)-3,4-dihydropyrazino[1,2-a]indol-1(2H)-one] |  | 2000 nM | 1.2 nM
13 | COc1cccc(Cn2c(C(=O)O)cc3cccc(N4C[C@@H](C)n5c(c(CCCOc6cc(C)c(Cl)c(C)c6)c6ccc(Cl)c(-c7c(C)nn(C)c7C)c65)C4=O)c32)n1 [Example 360, (R)-7-(7-Chloro-10-(3-(4-chloro-3,5-dimethylphenoxy)propyl)-4-methyl-1-oxo-6-(1,3,5-trimethyl-1H-pyrazol-4-yl)-3,4-dihydropyrazino[1,2-a]indol-2(1H)-yl)-1-((6-methoxypyridin-2-yl)methyl)-1H-indole-2-carboxylic acid] |  | 2500 nM | 2.5 nM
